# Results from ChEMBL document CHEMBL1152974, “Ionic interactions for substituted MCH1R inhibitors studied by pK(a) values” (Bioorg Med Chem Lett, 2009).
# Key:
# [1] = Association constant, pKa for quinoline nitrogen; format: physicochemical
# [2] = Association constant, pKa for aliphatic nitrogen; format: physicochemical
Structure (SMILES),pKa [1],pKa [2]
CC(=O)Nc1ccc2nc(SCCN(C)C)ccc2c1,4.33,11.6
CC(=O)Nc1ccc2nc(CCCN(C)C)ccc2c1,8.98,12.7
CC(=O)Nc1ccc2nc(C(C)(C)CCN(C)C)ccc2c1,6.22,12.4
CC(=O)Nc1ccc2nc(OCCN(C)C)ccc2c1,4.64,9.94
CC(=O)Nc1ccc2ncccc2c1,5.51,–
CC(=O)Nc1ccc2nc(NCCN(C)C)ccc2c1,12.2,10.8
CC(=O)Nc1ccc2nc(C(C)CCN(C)C)ccc2c1 (configuration not stated),6.56,11.8
CC(=O)Nc1ccc2nc(F)ccc2c1,-1.39,–
CC(=O)Nc1ccc2nc(N(C)CCO)ccc2c1,8.91,–
CC(=O)Nc1ccc2nc(N(C)CCN(C)C)ccc2c1,9.05,10.2
